Assay results as given in patent US5478816A, “Liquid vitamin formulations containing vitamin D esters” (Bristol-Myers Squibb Company, priority 1993, dated 1995).
Several values for one entry are separate records, joined by “and”; a condition that tells them apart may be missing. Equal values may be shown once.

Experiment: Short-term stability of vitamin D3 and vitamin D3 palmitate in liquid vitamin formulations at 40° C. (HPLC assay)
Format: physicochemical
Conditions: for Vitamin D content on storage: 40° C.
Experimental: In addition to the above, the vitamin formulation contains flavorants, stabilizer of vitamins, and about 1.0% polysorbate 80 as surfactant. As appreciated by the skilled artisan, appropriate overages of vitamins are included in order to assure meeting the label claims. The example composition contains 1.86:1 ratio by weight of glycerine to water. The pH is 5.0 which is adjusted by using an appropriate ratio of ascorbic acid to sodium ascorbate.
Vitamin D was analyzed by a HPLC assay as described by Matthew G. Sliva, et al., "Reversed-Phase Liquid Chromatographic Determination of Vitamin D in Infant Formulas and Enteral Nutritionals," J Assoc. Off. Anal. Chem., 75, 566, 1992, except that saponification conditions of 70° C. for 40 minutes were employed.
Stability of vitamins D3 and D3 palmitate were compared in various vitamin formulations containing different amounts of water and glycerin and at different pHs. The other ingredients and method of pH adjustment were as described in Example 1. The results are in Tables 2-5. Each batch number represents a different liquid vitamin formulation. The amount of glycerin varied between 650 and 850 mg/ml, depending upon the amount of water. "Vit" represents vitamin, "Desc." represents description,"Vit D3" represents vitamin D3, and "Vit D3P" or "D3 P" represents vitamin D3 palmitate. Table 1 lists the half-life (T50) values, i.e., time to degrade to 50% of the starting concentration of vitamins D3 and D3 palmitate at 40° C., These T50 values were calculated by fitting the data to first order degradation rate.

half-life (liquid vitamin formulation, pH 5.6, Time in Weeks for 50% Degradation (T50)): 113 days
Vitamin D content on storage (pH 3.2, 252 mg/ml water, age 0 weeks, Batch #1 (D3), #2 (D3 P)): 810 IU/ml
Vitamin D content on storage (pH 3.2, 252 mg/ml water, age 2 weeks, Batch #1 (D3), #2 (D3 P)): 715 IU/ml and 717 IU/ml
Vitamin D content on storage (pH 3.2, 252 mg/ml water, age 4 weeks, Batch #1 (D3), #2 (D3 P)): 668 IU/ml
Vitamin D content on storage (pH 3.2, 252 mg/ml water, age 6 weeks, Batch #1 (D3), #2 (D3 P)): 598 IU/ml and 612 IU/ml
Vitamin D content on storage (pH 3.2, 252 mg/ml water, age 8 weeks, Batch #1 (D3), #2 (D3 P)): 544 IU/ml and 574 IU/ml
Vitamin D content on storage (pH 3.2, 252 mg/ml water, age 12 weeks, Batch #1 (D3), #2 (D3 P)): 471 IU/ml and 443 IU/ml
Vitamin D content on storage (pH 3.2, 252 mg/ml water, age 16 weeks, Batch #1 (D3), #2 (D3 P)): 397 IU/ml and 385 IU/ml
Vitamin D content on storage (pH 3.2, 390 mg/ml water, age 0 weeks, Batch #3 (D3), #4 (D3 P)): 430 IU/ml and 425 IU/ml
Vitamin D content on storage (pH 3.2, 390 mg/ml water, age 1 week, Batch #3 (D3), #4 (D3 P)): 404 IU/ml and 405 IU/ml
Vitamin D content on storage (pH 3.2, 390 mg/ml water, age 2 weeks, Batch #3 (D3), #4 (D3 P)): 405 IU/ml and 403 IU/ml
Vitamin D content on storage (pH 3.2, 390 mg/ml water, age 4 weeks, Batch #3 (D3), #4 (D3 P)): 394 IU/ml and 397 IU/ml
Vitamin D content on storage (pH 3.2, 390 mg/ml water, age 8 weeks, Batch #3 (D3), #4 (D3 P)): 384 IU/ml and 381 IU/ml
Vitamin D content on storage (pH 3.2, 390 mg/ml water, age 12 weeks, Batch #3 (D3), #4 (D3 P)): 374 IU/ml and 370 IU/ml
Vitamin D content on storage (pH 3.2, 390 mg/ml water, age 16 weeks, Batch #3 (D3), #4 (D3 P)): 366 IU/ml and 362 IU/ml
Vitamin D content on storage (pH 4.2, 252 mg/ml water, age 0 weeks, Batch #5 (D3), #6 (D3 P)): 408 IU/ml and 405 IU/ml
Vitamin D content on storage (pH 4.2, 252 mg/ml water, age 1 week, Batch #5 (D3), #6 (D3 P)): 391 IU/ml and 386 IU/ml
Vitamin D content on storage (pH 4.2, 252 mg/ml water, age 2 weeks, Batch #5 (D3), #6 (D3 P)): 368 IU/ml and 371 IU/ml
Vitamin D content on storage (pH 4.2, 252 mg/ml water, age 4 weeks, Batch #5 (D3), #6 (D3 P)): 314 IU/ml and 316 IU/ml
Vitamin D content on storage (pH 4.2, 252 mg/ml water, age 8 weeks, Batch #5 (D3), #6 (D3 P)): 234 IU/ml
Vitamin D content on storage (pH 4.2, 252 mg/ml water, age 12 weeks, Batch #5 (D3), #6 (D3 P)): 145 IU/ml and 146 IU/ml
Vitamin D content on storage (pH 4.2, 252 mg/ml water, age 16 weeks, Batch #5 (D3), #6 (D3 P)): 145 IU/ml and 144 IU/ml
Vitamin D content on storage (pH 4.2, 390 mg/ml water, age 0 weeks, Batch #7 (D3), #8 (D3 P)): 414 IU/ml and 418 IU/ml
Vitamin D content on storage (pH 4.2, 390 mg/ml water, age 1 week, Batch #7 (D3), #8 (D3 P)): 397 IU/ml and 395 IU/ml
Vitamin D content on storage (pH 4.2, 390 mg/ml water, age 2 weeks, Batch #7 (D3), #8 (D3 P)): 395 IU/ml and 399 IU/ml
Vitamin D content on storage (pH 4.2, 390 mg/ml water, age 4 weeks, Batch #7 (D3), #8 (D3 P)): 379 IU/ml and 371 IU/ml
Vitamin D content on storage (pH 4.2, 390 mg/ml water, age 8 weeks, Batch #7 (D3), #8 (D3 P)): 353 IU/ml and 347 IU/ml
Vitamin D content on storage (pH 4.2, 390 mg/ml water, age 12 weeks, Batch #7 (D3), #8 (D3 P)): 339 IU/ml and 328 IU/ml
Vitamin D content on storage (pH 4.2, 390 mg/ml water, age 16 weeks, Batch #7 (D3), #8 (D3 P)): 319 IU/ml and 315 IU/ml
Vitamin D content on storage (pH 5.0, 252 mg/ml water, age 0 weeks, Batch #9 (D3), #10 (D3 P)): 426 IU/ml and 424 IU/ml
Vitamin D content on storage (pH 5.0, 252 mg/ml water, age 1 week, Batch #9 (D3), #10 (D3 P)): 394 IU/ml and 397 IU/ml
Vitamin D content on storage (pH 5.0, 252 mg/ml water, age 2 weeks, Batch #9 (D3), #10 (D3 P)): 363 IU/ml
Vitamin D content on storage (pH 5.0, 252 mg/ml water, age 4 weeks, Batch #9 (D3), #10 (D3 P)): 335 IU/ml and 329 IU/ml
Vitamin D content on storage (pH 5.0, 252 mg/ml water, age 8 weeks, Batch #9 (D3), #10 (D3 P)): 244 IU/ml
Vitamin D content on storage (pH 5.0, 252 mg/ml water, age 12 weeks, Batch #9 (D3), #10 (D3 P)): 201 IU/ml and 193 IU/ml
Vitamin D content on storage (pH 5.0, 252 mg/ml water, age 16 weeks, Batch #9 (D3), #10 (D3 P)): 123 IU/ml and 125 IU/ml
Vitamin D content on storage (pH 5.0, 390 mg/ml water (so in the source), age 0 weeks, Batch #11 (D3), #12 (D3 P)): 433 IU/ml and 437 IU/ml
Vitamin D content on storage (pH 5.0, 390 mg/ml water (so in the source), age 1 week, Batch #11 (D3), #12 (D3 P)): 404 IU/ml and 414 IU/ml
Vitamin D content on storage (pH 5.0, 390 mg/ml water (so in the source), age 2 weeks, Batch #11 (D3), #12 (D3 P)): 380 IU/ml and 383 IU/ml
Vitamin D content on storage (pH 5.0, 390 mg/ml water (so in the source), age 4 weeks, Batch #11 (D3), #12 (D3 P)): 364 IU/ml
Vitamin D content on storage (pH 5.0, 390 mg/ml water (so in the source), age 8 weeks, Batch #11 (D3), #12 (D3 P)): 306 IU/ml and 300 IU/ml
Vitamin D content on storage (pH 5.0, 390 mg/ml water (so in the source), age 12 weeks, Batch #11 (D3), #12 (D3 P)): 264 IU/ml and 263 IU/ml
Vitamin D content on storage (pH 5.0, 390 mg/ml water (so in the source), age 16 weeks, Batch #11 (D3), #12 (D3 P)): 188 IU/ml and 186 IU/ml
Vitamin D content on storage (pH 5.0, 390 mg/ml water, age 0 weeks, Batch #13 (D3), #14 (D3 P)): 593 IU/ml and 599 IU/ml
Vitamin D content on storage (pH 5.0, 390 mg/ml water, age 1 week, Batch #13 (D3), #14 (D3 P)): 573 IU/ml and 570 IU/ml
Vitamin D content on storage (pH 5.0, 390 mg/ml water, age 4 weeks, Batch #13 (D3), #14 (D3 P)): 554 IU/ml and 555 IU/ml
Vitamin D content on storage (pH 5.0, 390 mg/ml water, age 8 weeks, Batch #13 (D3), #14 (D3 P)): 510 IU/ml and 500 IU/ml
Vitamin D content on storage (pH 5.0, 390 mg/ml water, age 12 weeks, Batch #13 (D3), #14 (D3 P)): 525 IU/ml and 508 IU/ml
Vitamin D content on storage (pH 5.0, 390 mg/ml water, age 16 weeks, Batch #13 (D3), #14 (D3 P)): 490 IU/ml
Vitamin D content on storage (pH 5.0, 435 mg/ml water, age 0 weeks, Batch #15 (D3), #16 (D3 P)): 431 IU/ml and 433 IU/ml
Vitamin D content on storage (pH 5.0, 435 mg/ml water, age 1 week, Batch #15 (D3), #16 (D3 P)): 418 IU/ml
Vitamin D content on storage (pH 5.0, 435 mg/ml water, age 2 weeks, Batch #15 (D3), #16 (D3 P)): 395 IU/ml and 404 IU/ml
Vitamin D content on storage (pH 5.0, 435 mg/ml water, age 4 weeks, Batch #15 (D3), #16 (D3 P)): 403 IU/ml and 394 IU/ml
Vitamin D content on storage (pH 5.0, 435 mg/ml water, age 8 weeks, Batch #15 (D3), #16 (D3 P)): 364 IU/ml
Vitamin D content on storage (pH 5.0, 435 mg/ml water, age 12 weeks, Batch #15 (D3), #16 (D3 P)): 343 IU/ml and 338 IU/ml
Vitamin D content on storage (pH 5.0, 435 mg/ml water, age 16 weeks, Batch #15 (D3), #16 (D3 P)): 256 IU/ml
Compound: C=C1CC[C@H](OC(=O)CCCCCCCCCCCCCCC)C/C1=C/C=C1\CCC[C@]2(C)[C@@H]([C@H](C)CCCC(C)C)CC[C@@H]12 [Vitamin D3 P, vitamin D3 palmitate]
